The source of these data is paper PMC5419573, “TRPV1 activation power can switch an action mode for its polypeptide ligands” (PLoS ONE, 2017).

Entries after “also recorded” stand apart in the source; their conditions may differ.

One experiment has as its system human TRPV1. Conditions: cited from earlier work. The source says: (§1) Since elaboration of TRPV1 pharmacology has obvious perspectives related to the potential treatment of pain and inflammation, many compounds affecting TRPV1 activation have been characterized. Some TRPV1 ligands have distinct effects on different modes of channel activation (heat, protons or chemical ligands).

Experiment [1] concerns the target T1, rat TRPV1 (Rattus norvegicus, UniProt O35433).
T1 construct: expressed in transfected cells; host or cells: CHO cells (T-Rex System, Invitrogen; tetracycline-induced)
The conditions noted are these: ref [8], [10], [11]; cited from earlier work.
From the text: as §1

Experiment [2] addresses T1, rat TRPV1. The class given is cell-based. On the procedure: Recordings were made by a patch-clamp technique in whole-cell configuration using CHO cells stably expressing rat TRPV1. Whole-cell currents were recorded and digitized by Instru TECH LIH 8+8 data acquisition system (HEKA, Germany) at -80 mV holding voltage using EPC-8 (HEKA, Germany) amplifier, filtered at 5 kHz, sampled at 10kHz and stored. The external solution contained in mM: CaCl2 2.5, KCl 5, NaCl 143, D-glucose 18, HEPES 10, pH 7.35. Patch pipettes (2–5 MΩ resistance) were prepared by puller model P-97 (Sutter Instruments, USA). Pipette solution contained in mM: CsF 100, CsCl 40, NaCl 5, CaCl2 0.5, EGTA 5, HEPES 10, pH 7.2. Series resistance of about 20 MΩ was compensated by 70–80% and monitored during experiments. Drugs were applied using the ALA-VM8 (ALA Scientific Instruments, USA) perfusion system under computer control. All experiments were performed at 22°C.
(§2) All data were expressed as the mean ± standard deviation (SD). Significance of the effect was tested by ANOVA followed by Tukey’s post hoc analysis with the p-value of 0.05.
The cell line stably expressing rat TRPV1 was used for electrophysiological and internal Ca^2+ fluorescent recordings. […] In Fluo-4-based intracellular calcium assay experiments, capsaicin or 2APB were used as channel agonists. […] To take the response rundown in account, the peptide effects were measured relative to the average value of the preceding and subsequent control responses (see S2 Fig).
Fig 1 Action of APHCs on capsaicin-induced TRPV1 currents. […] G, Current–voltage relationship for TRPV1 currents induced by 3 and 0.3 μM capsaicin in control (black and red) and in the presence of 100 nM APHC1 (blue and magenta). […] I, Summary of the polypeptides action (100 nM) on TRPV1 responses activated by different concentrations of capsaicin, n = 9 for all series.

The target in experiment [3] is T1, rat TRPV1. It is filed as cell-based. On the procedure:
as §2
This is another data set of the same source.

The subject of the next experiment is monkey TRPV1. The conditions noted are these: ref [10], [11]; cited from earlier work.
From the text: as §1

Another experiment deals with TRPV1. Set-up: method as in PMID 17093448, PMID 20510930, PMID 26420335, PMID 24061123. The conditions noted are these: ref [20], [21], [22], [39]; cited from earlier work.
A further experiment has as its system mice. The conditions noted are these: ref [20], [21], [22]; cited from earlier work. The text has this: Small lipophilic drugs can potentially reach their binding sites in different parts of a receptor, which complicates the study of mechanisms of action. Binding sites for membrane-impermeable peptide modulators should be localized at the outside surface of a channel protein. There are a few examples of polypeptides affecting TRPV1 channels.

T1 sequence (O35433 whole entry): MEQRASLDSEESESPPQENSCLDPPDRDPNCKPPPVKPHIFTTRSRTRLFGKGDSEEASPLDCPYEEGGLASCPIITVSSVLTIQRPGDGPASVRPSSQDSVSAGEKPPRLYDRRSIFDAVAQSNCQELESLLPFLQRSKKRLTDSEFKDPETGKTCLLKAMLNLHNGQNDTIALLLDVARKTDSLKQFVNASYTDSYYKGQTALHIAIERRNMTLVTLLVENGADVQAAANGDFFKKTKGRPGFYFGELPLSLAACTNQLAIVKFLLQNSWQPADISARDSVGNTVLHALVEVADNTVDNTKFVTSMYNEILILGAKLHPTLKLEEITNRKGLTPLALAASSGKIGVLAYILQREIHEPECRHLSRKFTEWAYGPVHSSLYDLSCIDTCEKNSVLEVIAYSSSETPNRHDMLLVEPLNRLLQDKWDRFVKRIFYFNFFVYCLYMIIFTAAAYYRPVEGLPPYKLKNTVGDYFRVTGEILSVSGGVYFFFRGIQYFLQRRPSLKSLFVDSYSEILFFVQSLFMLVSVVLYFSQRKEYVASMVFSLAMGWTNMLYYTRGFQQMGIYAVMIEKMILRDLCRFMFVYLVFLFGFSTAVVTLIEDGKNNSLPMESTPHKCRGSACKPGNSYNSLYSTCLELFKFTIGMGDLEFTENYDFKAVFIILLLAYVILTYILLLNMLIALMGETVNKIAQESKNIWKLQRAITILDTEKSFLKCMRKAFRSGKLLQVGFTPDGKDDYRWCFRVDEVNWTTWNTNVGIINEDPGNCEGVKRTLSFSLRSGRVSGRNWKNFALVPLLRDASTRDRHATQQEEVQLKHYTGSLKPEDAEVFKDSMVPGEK

`O=C(/C=C/c1ccc(C(F)(F)F)cc1N1CCCCC1)Nc1cccc2c1C[C@H](O)C2` [AMG8562, (R,E)-N-(2-hydroxy-2,3-dihydro-1H-inden-4-yl)-3-(2-(piperidin-1-yl)-4-(trifluoromethyl)phenyl)-acrylamide]: in the experiment on human TRPV1 (ref [11]), the “effect on capsaicin activation of human TRPV1” value is “blocks both heat and capsaicin activation”; the “effect on heat activation of human TRPV1” value was “blocks both heat and capsaicin activation”; the “effect on proton activation of human TRPV1” value is reported as “partial antagonist of proton activation”. Further, on rat TRPV1 [1], the “effect on capsaicin response of rat TRPV1” value (“effect on capsaicin response” below) is “blocks capsaicin activation”, the “effect on heat response of rat TRPV1” value is reported as “does not affect heat activation” and the “effect on proton response of rat TRPV1” value is on record as “potentiates proton activation”.
As for `COc1cc(CNC(=O)CCCC/C=C/C(C)C)ccc1O` [capsaicin], on rat TRPV1 [2], the “reversal voltage of evoked currents” value is given as “close to zero”.
For the molecule `NCCOB(c1ccccc1)c1ccccc1` [2APB, 2-aminoethoxydiphenyl borate], the “reversal voltage of evoked currents” value at rat TRPV1 [2] was “close to zero”. In addition, the “Ca2+ influx on agonist application” value on rat TRPV1 [3] is “did not result in a detectable Ca^2+ influx”.
As to `CC(C)(C)c1ccc(CNC(=S)NCc2ccc(NS(C)(=O)=O)c(F)c2)cc1` [JYL-1421], the “action profile of rat TRPV1 (block of capsaicin, not heat or protons) on human TRPV1” value in the experiment with human TRPV1 (ref [10], [11]) is given as “could not be shown”. The “action profile of rat TRPV1 (block of capsaicin, not heat or protons) on monkey TRPV1” value in the experiment on monkey TRPV1 is listed as “could not be shown”. Also, at rat TRPV1 [1], the “effect on capsaicin response” value is “blocks responses to capsaicin” and the “effect on proton response of rat TRPV1” value is given as “not to heat or protons”.
For the molecule `Oc1cc2c(cc1O)CN(C(=S)NCCc1ccc(Cl)cc1)CCC2` [capsazepine], the “block of capsaicin-evoked currents” value at rat TRPV1 [2] was “reversibly blocked; also recorded: abolished”. In addition, on rat TRPV1 [3], the “block of calcium responses to capsaicin” value is reported as “fully blocked; also recorded: abolished”. At rat TRPV1 [1], the “effect on capsaicin response” value was “heat and capsaicin responses are blocked at low capsazepine concentrations”; the “effect on heat response of rat TRPV1” value is “heat and capsaicin responses are blocked at low capsazepine concentrations”; the “effect on proton response of rat TRPV1” value is “ineffective as an antagonist of proton-induced response”.

B1: DkTx: the bivalent toxin DkTx from tiger tarantula Ornithoctonus huwena (peptide, UniProt P0CH43 1-79, looked up)
Tau-theraphotoxin-Hs1a: DCAKEGEVCSWGKKCCDLDNFYCPMEFIPHCKKYKPYVPVTTNCAKEGEVCGWGSKCCHGLDCPLAFIPYCEKYRGRND
modifications: Tau-theraphotoxin-Hs1a
notes: the bivalent toxin DkTx from tiger tarantula Ornithoctonus huwena
As for B1, in the experiment with TRPV1, the “action on TRPV1” value was “Peptide agonists of TRPV1”. For the same molecule, the “effect when injected in mice” value in the experiment on mice is recorded as “cause pain behavior”.
